Common to all, as to test: In vitro profiling, binding assay
In one series the target is 5-HT1B (Homo sapiens, UniProt P28222). As for the experimental part:
(§1) Binding and functional assays of CGAs with the proteins known to be pharmacological targets related to the CVS, CNS, and GI functions were conducted. […] In the binding assay, we measured the radiation activity of the solution containing filtered proteins that bound to the tested compound or high-affinity ligand, while in the functional assays, we measured the reaction product. The ability of the test compound to interact with the tested targets was measured as the inhibition of ligand binding to the target or reaction product production (% inhibition).

The target of a further series is 5-HT2B (Homo sapiens, UniProt P41595). The method, then: as §1
Sequence of 5-HT2B (P41595 whole entry): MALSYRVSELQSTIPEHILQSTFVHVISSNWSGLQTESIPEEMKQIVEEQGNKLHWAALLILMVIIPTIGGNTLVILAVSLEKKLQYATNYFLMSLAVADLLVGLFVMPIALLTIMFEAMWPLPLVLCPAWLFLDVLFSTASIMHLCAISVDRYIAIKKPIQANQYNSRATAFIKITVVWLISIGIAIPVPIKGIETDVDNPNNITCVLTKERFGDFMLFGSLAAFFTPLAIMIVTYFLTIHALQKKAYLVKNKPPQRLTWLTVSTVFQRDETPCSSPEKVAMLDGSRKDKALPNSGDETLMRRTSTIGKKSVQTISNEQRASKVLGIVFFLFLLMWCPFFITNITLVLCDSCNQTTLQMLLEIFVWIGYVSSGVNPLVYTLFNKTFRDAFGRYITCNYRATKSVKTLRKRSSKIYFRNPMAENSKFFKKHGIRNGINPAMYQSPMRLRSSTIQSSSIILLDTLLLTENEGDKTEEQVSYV
The target in a further series is T1, 5-HT3 (Homo sapiens, UniProt P46098).
T1 sequence (P46098 24-478): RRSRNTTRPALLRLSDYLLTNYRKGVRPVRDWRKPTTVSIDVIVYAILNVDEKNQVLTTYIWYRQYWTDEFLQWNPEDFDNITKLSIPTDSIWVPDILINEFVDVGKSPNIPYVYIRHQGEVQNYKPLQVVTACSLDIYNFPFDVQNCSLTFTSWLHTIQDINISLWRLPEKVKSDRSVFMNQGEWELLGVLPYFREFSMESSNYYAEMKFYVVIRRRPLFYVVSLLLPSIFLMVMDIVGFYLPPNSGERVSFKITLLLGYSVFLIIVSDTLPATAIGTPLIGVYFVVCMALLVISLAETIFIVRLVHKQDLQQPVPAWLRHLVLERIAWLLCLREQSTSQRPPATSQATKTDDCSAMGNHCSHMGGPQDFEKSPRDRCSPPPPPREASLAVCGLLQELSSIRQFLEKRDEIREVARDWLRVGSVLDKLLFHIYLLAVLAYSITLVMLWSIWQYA
The method, then:
as §1

The next series has as its target T2, Adrenergic α2A (Homo sapiens, UniProt P08913).
T2 sequence (P08913 1-465): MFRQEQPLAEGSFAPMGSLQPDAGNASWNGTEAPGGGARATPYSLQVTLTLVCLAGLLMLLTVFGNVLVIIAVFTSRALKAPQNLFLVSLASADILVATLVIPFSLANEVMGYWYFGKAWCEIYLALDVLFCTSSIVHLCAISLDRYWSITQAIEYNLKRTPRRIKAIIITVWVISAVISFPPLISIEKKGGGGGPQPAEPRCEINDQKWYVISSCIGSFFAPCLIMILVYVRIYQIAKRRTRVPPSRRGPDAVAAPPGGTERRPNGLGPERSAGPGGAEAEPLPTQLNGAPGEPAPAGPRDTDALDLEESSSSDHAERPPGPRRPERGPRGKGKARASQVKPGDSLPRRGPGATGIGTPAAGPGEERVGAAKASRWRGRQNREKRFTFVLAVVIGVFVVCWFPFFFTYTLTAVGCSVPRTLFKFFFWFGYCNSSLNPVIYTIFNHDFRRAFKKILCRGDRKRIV
The method, then:
as §1

For the next series, the target named is Adrenergic β1 (Homo sapiens, UniProt P08588). As for the experimental part: as §1
Sequence of Adrenergic β1 (P08588 whole entry): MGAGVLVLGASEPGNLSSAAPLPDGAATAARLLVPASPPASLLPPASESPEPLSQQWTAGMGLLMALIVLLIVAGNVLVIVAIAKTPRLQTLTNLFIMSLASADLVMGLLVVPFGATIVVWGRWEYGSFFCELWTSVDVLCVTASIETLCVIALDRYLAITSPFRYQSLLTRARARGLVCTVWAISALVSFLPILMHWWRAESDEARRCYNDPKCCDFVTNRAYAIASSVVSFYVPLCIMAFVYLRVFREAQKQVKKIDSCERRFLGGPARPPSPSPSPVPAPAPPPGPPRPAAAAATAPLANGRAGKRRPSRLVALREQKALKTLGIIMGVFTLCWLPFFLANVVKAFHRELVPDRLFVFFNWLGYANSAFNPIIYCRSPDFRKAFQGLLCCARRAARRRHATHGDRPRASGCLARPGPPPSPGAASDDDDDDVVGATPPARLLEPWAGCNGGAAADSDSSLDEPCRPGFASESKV
The target in another series is Adrenergic β2 (Homo sapiens, UniProt P07550). As for the experimental part:
as §1

Another series concerns the target Cannabinoid CB1 (Homo sapiens, UniProt P21554). The method, then: as §1
The target in series [1] is T3, Cholecystokinin CCK1 (CCKA) (Homo sapiens, UniProt P32238).
T3 sequence (P32238 1-428): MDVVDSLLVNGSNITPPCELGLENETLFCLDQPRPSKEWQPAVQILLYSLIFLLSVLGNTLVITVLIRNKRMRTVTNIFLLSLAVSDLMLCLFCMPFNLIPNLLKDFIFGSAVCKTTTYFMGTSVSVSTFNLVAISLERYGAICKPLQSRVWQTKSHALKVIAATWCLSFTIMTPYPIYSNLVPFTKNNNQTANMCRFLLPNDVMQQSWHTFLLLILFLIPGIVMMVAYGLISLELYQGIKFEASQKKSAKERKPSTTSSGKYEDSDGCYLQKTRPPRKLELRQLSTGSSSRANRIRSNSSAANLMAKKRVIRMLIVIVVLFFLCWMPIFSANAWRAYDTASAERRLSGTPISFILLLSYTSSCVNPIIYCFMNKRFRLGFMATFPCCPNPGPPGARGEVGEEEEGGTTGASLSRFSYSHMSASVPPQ
The method, then:
as §1

For another series, the target named is Dopamine D2L (Homo sapiens, UniProt P14416). As for the experimental part:
as §1

The target in another series is Histamine H1 (Homo sapiens, UniProt P35367). The method, then: as §1
Sequence of Histamine H1 (P35367 whole entry): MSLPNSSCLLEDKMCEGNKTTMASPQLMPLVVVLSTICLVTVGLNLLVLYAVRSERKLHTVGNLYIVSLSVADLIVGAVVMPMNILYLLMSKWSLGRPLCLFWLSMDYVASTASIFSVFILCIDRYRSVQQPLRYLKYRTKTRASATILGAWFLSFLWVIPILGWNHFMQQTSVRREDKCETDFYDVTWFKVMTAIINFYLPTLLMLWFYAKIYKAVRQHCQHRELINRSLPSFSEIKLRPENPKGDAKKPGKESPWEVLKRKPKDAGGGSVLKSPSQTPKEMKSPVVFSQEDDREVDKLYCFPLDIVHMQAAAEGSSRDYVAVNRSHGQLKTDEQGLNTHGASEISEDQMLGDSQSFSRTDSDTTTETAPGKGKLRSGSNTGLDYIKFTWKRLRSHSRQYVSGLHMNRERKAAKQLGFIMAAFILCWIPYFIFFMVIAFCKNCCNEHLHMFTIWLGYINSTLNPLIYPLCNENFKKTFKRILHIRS
Another series addresses T4, Muscarinic M1 (Homo sapiens, UniProt P11229).
T4 sequence (P11229 1-460): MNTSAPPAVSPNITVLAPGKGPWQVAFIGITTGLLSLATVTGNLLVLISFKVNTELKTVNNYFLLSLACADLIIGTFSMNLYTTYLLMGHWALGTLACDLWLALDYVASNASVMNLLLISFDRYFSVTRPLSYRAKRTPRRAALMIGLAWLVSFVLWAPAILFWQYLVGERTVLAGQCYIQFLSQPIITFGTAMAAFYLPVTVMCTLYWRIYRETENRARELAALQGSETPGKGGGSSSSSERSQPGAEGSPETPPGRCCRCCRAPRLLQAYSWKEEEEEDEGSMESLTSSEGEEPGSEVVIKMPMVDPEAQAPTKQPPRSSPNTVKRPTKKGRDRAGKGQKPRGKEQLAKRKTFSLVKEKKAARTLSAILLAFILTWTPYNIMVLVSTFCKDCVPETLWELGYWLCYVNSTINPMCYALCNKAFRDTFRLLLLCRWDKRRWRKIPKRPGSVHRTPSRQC
The method, then: as §1

In the next series the target is Muscarinic M3 (Homo sapiens, UniProt P20309). As for the experimental part: as §1
Sequence of Muscarinic M3 (P20309 whole entry): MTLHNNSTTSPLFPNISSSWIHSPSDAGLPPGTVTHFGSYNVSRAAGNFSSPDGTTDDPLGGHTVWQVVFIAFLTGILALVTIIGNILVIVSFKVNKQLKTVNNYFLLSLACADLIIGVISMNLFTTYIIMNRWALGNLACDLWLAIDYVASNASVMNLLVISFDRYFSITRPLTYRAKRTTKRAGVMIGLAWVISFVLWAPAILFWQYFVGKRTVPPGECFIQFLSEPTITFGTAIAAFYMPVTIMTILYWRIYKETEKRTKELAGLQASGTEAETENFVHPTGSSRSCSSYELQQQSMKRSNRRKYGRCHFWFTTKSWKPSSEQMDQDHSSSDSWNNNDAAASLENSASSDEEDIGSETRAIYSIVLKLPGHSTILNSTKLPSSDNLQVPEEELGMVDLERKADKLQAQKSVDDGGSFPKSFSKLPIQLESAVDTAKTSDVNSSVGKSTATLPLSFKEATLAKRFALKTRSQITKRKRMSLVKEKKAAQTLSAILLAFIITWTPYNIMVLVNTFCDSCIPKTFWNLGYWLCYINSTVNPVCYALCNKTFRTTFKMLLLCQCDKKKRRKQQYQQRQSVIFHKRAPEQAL
A further series addresses Opiate δ1 (Homo sapiens, UniProt P41143). As for the experimental part:
as §1

The target in the next series is Opiate μ (Homo sapiens, UniProt P35372). The method, then: as §1
Sequence of Opiate μ (P35372 whole entry): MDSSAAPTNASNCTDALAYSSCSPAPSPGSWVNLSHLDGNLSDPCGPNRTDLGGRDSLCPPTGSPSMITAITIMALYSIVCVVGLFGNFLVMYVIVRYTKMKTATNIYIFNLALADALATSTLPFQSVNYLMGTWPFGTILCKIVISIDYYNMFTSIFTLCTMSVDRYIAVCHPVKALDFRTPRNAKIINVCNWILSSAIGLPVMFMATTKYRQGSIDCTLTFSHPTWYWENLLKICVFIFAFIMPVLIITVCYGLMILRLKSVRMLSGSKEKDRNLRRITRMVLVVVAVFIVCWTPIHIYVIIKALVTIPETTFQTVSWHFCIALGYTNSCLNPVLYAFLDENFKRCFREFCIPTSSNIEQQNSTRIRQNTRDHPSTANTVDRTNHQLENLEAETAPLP
Series [2] has as its target Transporter, Norepinephrine (NET) (Homo sapiens, UniProt P23975). The method, then:
as §1

Another series concerns the target hERG potassium channel (Homo sapiens, UniProt Q12809). As for the experimental part: as §1
The mark [3] stands for this setting: 30 µM, 5-HT1B, read-out: % Inhibition.
Where [4] appears, read: 30 µM, 5-HT2B, read-out: % Inhibition.
Where [5] appears, read: 30 µM, 5-HT3, read-out: % Inhibition.
[6] abbreviates: 30 µM, Adrenergic α2A, read-out: % Inhibition.
Setting [7] is: 30 µM, Adrenergic β1, read-out: % Inhibition.
Setting [8] is: 30 µM, Adrenergic β2, read-out: % Inhibition.
The mark [9] stands for this setting: 30 µM, Cannabinoid CB1, read-out: % Inhibition.
The mark [10] stands for this setting: 30 µM, Cholecystokinin CCK1 (CCKA), read-out: % Inhibition.
Where [11] appears, read: 30 µM, Dopamine D2L, read-out: % Inhibition.
The mark [12] stands for this setting: 30 µM, Opiate δ1, read-out: % Inhibition.
The mark [13] stands for this setting: 30 µM, Opiate μ, read-out: % Inhibition.
The mark [14] stands for this setting: 30 µM, Transporter, Norepinephrine (NET), read-out: % Inhibition.
The mark [15] stands for this setting: probe radioisotope-labeled high-affinity ligand (not named), 30 µM, Potassium Channel hERG, read-out: % Inhibition.

The record followed here is article PMC6789782, “Safety Pharmacological Evaluation of the Coffee Component, Caffeoylquinic Acid, and Its Metabolites, Using Ex Vivo and In Vitro Profiling Assays” (Pharmaceuticals, 2019).

By % Inhibition is commonly meant the relative decrease from the control value, in per cent. One may read the inhibition as the change of the read-out against control, counted positive when it falls.

Read-outs that look alike come from different tables or passages of the source.

Sequence of hERG potassium channel (Q12809 whole entry): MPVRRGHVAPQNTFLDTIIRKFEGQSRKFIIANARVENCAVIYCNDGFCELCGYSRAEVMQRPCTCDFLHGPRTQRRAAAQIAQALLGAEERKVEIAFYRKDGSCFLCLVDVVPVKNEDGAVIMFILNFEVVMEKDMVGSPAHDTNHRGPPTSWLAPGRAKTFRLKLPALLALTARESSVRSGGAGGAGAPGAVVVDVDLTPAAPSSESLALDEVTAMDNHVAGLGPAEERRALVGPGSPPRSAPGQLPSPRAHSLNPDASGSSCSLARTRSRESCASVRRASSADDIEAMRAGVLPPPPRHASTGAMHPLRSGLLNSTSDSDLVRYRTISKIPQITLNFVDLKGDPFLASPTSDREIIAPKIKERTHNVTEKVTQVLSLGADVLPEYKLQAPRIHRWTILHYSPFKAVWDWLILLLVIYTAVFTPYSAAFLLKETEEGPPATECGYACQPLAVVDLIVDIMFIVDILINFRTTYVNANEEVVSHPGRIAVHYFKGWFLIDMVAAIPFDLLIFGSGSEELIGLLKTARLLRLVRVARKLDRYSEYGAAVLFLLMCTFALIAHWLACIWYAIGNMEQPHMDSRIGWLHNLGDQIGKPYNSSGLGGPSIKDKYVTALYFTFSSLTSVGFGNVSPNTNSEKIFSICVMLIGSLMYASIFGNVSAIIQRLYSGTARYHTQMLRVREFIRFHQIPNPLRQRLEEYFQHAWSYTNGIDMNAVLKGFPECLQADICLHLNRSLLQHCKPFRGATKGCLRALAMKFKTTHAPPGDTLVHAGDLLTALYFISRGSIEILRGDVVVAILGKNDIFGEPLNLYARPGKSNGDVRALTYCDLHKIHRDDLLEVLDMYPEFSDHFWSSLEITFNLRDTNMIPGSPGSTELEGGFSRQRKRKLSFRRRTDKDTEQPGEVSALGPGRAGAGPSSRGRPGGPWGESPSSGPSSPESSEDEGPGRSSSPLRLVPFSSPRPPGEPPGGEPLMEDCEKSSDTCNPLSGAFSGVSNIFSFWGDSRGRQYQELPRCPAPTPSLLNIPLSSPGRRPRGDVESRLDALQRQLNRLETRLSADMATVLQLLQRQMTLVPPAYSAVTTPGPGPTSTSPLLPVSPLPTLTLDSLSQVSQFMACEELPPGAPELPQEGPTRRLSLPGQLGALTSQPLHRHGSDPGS
Sequence of Adrenergic β2 (P07550 whole entry): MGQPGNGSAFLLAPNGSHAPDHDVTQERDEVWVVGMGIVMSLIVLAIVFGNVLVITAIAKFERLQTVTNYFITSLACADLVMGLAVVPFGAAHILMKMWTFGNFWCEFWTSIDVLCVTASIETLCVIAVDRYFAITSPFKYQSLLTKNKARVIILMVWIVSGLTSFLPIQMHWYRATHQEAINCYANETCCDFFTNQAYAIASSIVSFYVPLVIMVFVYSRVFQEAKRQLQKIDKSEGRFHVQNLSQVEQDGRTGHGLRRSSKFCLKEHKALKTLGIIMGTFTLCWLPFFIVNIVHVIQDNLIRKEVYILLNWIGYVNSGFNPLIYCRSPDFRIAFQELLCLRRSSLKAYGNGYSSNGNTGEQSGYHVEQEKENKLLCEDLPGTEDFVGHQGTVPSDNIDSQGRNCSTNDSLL
Sequence of Dopamine D2L (P14416 whole entry): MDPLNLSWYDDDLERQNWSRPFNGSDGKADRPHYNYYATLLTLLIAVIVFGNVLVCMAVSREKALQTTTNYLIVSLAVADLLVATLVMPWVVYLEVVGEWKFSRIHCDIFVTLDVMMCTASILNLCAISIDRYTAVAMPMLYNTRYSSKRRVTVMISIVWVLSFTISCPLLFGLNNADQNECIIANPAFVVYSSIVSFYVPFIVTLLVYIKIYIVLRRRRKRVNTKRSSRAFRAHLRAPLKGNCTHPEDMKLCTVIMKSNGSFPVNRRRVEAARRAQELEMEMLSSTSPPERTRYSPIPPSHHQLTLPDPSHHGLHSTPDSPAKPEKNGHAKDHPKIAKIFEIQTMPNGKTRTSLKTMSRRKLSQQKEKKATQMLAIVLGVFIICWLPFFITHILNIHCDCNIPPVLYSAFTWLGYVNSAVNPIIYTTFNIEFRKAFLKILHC
Sequence of Opiate δ1 (P41143 whole entry): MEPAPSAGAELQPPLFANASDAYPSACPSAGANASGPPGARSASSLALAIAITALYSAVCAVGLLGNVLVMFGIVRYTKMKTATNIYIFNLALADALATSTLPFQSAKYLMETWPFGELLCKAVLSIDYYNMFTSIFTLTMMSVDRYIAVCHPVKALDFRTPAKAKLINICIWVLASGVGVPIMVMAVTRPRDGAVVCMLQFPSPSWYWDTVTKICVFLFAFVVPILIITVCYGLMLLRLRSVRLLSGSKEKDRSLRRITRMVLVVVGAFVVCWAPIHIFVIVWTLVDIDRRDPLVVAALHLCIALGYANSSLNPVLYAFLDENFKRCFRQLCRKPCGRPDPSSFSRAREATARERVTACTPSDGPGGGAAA

With `O=C(O)/C=C/c1ccc(O)c(O)c1` [CA, caffeic acid], the “% Inhibition” value on 5-HT1B (30 µM, 5-HT1B) is listed as 3%; at 5-HT2B (30 µM, 5-HT2B), 1%; at 5-HT3 (30 µM, 5-HT3) it was −5%; at Adrenergic α2A (30 µM, Adrenergic α2A), −4%; on Adrenergic β1 (30 µM, Adrenergic β1), 3%; at Adrenergic β2 (30 µM, Adrenergic β2), 2%. Further, the “% Inhibition” value at Cannabinoid CB1 (30 µM, Cannabinoid CB1) is reported as −9%; in series [1] (30 µM, Cholecystokinin CCK1 (CCKA)), 12%; at Histamine H1 (30 µM), −11%; on Muscarinic M3 (30 µM), −3%; on Opiate δ1 (30 µM, Opiate δ1), 11%; at Opiate μ (30 µM, Opiate μ) it was −6%. Also, the “% Inhibition” value in series [2] (30 µM, Transporter, Norepinephrine (NET)) worked out at 0%. The results for the inhibition at 30 µM on Dopamine D2L, at Muscarinic M1 and on hERG potassium channel were 16%, 5% and -19%, respectively.
Consider `COc1cc(/C=C/C(=O)O)ccc1O` [FA, ferulic acid], for which the inhibition at 30 µM is 4% on 5-HT1B; 5% on 5-HT2B; -13% at 5-HT3; -2% on Adrenergic α2A; -2% on Adrenergic β1; 2% on Adrenergic β2. The inhibition at 30 µM is -15% on Cannabinoid CB1; 1% in series [1]; 9% on Dopamine D2L; 16% at Opiate δ1; 4% at Opiate μ; 2% in series [2]. The inhibition at 30 µM at hERG potassium channel (30 µM, Potassium Channel hERG, read-out: % Inhibition) turned out to be 7%.
As to `COc1cc(/C=C/C(=O)O[C@H]2C[C@@](O)(C(=O)O)C[C@H](O)[C@@H]2O)ccc1O` [5-FQA, 5-O-feruloylquinic acid], the inhibition at 30 µM on 5-HT1B (setting [3]) is -10%; on 5-HT2B (setting [4]) it was -5%; on 5-HT3 (setting [5]) it was -3%; at Adrenergic α2A (setting [6]), -3%; on Adrenergic β1 (setting [7]), -4%; on Adrenergic β2 (setting [8]), 6%. For the same molecule, the inhibition at 30 µM on Cannabinoid CB1 (setting [9]) is -6%; in series [1] (setting [10]), 7%; on Dopamine D2L (setting [11]), -8%; at Histamine H1, -22%; on Muscarinic M1 (30 µM, Muscarinic M1, read-out: % Inhibition), -5%; on Muscarinic M3, 2%. The inhibition at 30 µM at Opiate δ1 (setting [12]) was 2%; on Opiate μ (setting [13]) it was 5%; in series [2] (setting [14]) it was -1%; on hERG potassium channel (setting [15]), 6%.
As to `O=C(/C=C/c1ccc(O)c(O)c1)O[C@H]1C[C@@](O)(C(=O)O)C[C@H](O)[C@@H]1O` [5-CQA, 5-O-caffeoylquinic acid], the inhibition at 30 µM on 5-HT1B (setting [3]) was -1%; on 5-HT2B (setting [4]), -16%; at 5-HT3 (setting [5]), -9%; at Adrenergic α2A (setting [6]), 5%; on Adrenergic β1 (setting [7]), -1%; on Adrenergic β2 (setting [8]) it was 1%. The inhibition at 30 µM on Cannabinoid CB1 (setting [9]) was -6%; in series [1] (setting [10]) it was 10%; at Dopamine D2L (setting [11]) it was 7%; at Histamine H1 it was -12%; on Muscarinic M1, 0%; on Muscarinic M3, 5%. Moreover, the inhibition at 30 µM at Opiate δ1 (setting [12]) was 5%; at Opiate μ (setting [13]), 8%; in series [2] (setting [14]), -3%; on hERG potassium channel (setting [15]), 3%.
